We go through twelve compounds from PubChem BioAssay (NCI).

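Five concentrations, 48 hours, 96-well plates. GI50 marks 50% less growth. TGI: total growth inhibition.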

Test systems include 786-0 renal; EKVX NSCLC; HCT-15 colon; LOX IMVI melanoma; SF-295 CNS; SF-539 CNS; U251 CNS; UACC-257 melanoma; K-562 leukemia; SNB-75 CNS.
Assay in all cases: growth of human tumour cells (NCI), 48 h

As to `O=C(Nc1cc(Cl)c(Cl)cc1Cl)C(=O)C(C(=O)c1ccc2ccccc2c1)C1OC(=O)c2ccccc21` (configuration not stated), the TGI with 786-0 renal came to 20.9 µM; with EKVX NSCLC it was 36.6 µM; with HCT-15 colon it was 45.2 µM; in the assay on LOX IMVI melanoma, 39.8 µM; in the assay with SF-295 CNS, 21 µM; in the assay on SF-539 CNS, 13 µM. For the same compound, the values for the TGI in the assay on U251 CNS and in the assay on UACC-257 melanoma were 17 µM and 28.7 µM, respectively.

For `O=P1(O)c2ccccc2CS(=O)(=O)Cc2ccccc21`, the TGI in the assay with 786-0 renal, in the assay on EKVX NSCLC, in the assay with HCT-15 colon, with K-562 leukemia, in the assay with LOX IMVI melanoma and in the assay on SF-295 CNS was over 100 µM each time. In addition, the TGI with SF-539 CNS, in the assay with U251 CNS and in the assay with UACC-257 melanoma was over 100 µM each time.

On to `O=C1c2cccc3cc([N+](=O)[O-])cc(c23)C(=O)N1O`, for which the TGI with 786-0 renal, in the assay on EKVX NSCLC, with HCT-15 colon, in the assay on K-562 leukemia, in the assay on LOX IMVI melanoma and in the assay on SF-295 CNS was over 100 µM throughout. Moreover, the TGI in the assay on U251 CNS and with UACC-257 melanoma was over 100 µM each time.

As to `CC(C)c1cccc(C(C)C)c1NC1=CC(=O)C(=O)c2ccccc21`, the TGI in the assay on 786-0 renal, with EKVX NSCLC, in the assay on HCT-15 colon, in the assay on K-562 leukemia, in the assay on LOX IMVI melanoma and with SF-295 CNS was over 100 µM in each case. Further, the TGI in the assay on SF-539 CNS, with U251 CNS and in the assay with UACC-257 melanoma was over 100 µM each time.

As for `CCOC(=O)CNC(=O)C(CSC(=O)N(C)O)NC(=O)CCC(N)C(=O)O` (configuration not stated), the GI50 in the assay with 786-0 renal, with EKVX NSCLC, with HCT-15 colon, in the assay on K-562 leukemia, with LOX IMVI melanoma and in the assay on SNB-75 CNS was over 2000 µM throughout. In addition, the GI50 in the assay with U251 CNS and in the assay with UACC-257 melanoma was over 2000 µM each time. Also, the TGI in the assay on 786-0 renal, with EKVX NSCLC, in the assay on HCT-15 colon, in the assay on K-562 leukemia, in the assay on SNB-75 CNS and with U251 CNS was over 2000 µM throughout. The compound further gave a TGI in the assay with UACC-257 melanoma of over 2000 µM.

In the case of `O=C(Nc1ccc(S(=O)(=O)NC2CCCCCC2)cc1)C(c1ccccc1)S(=O)(=O)c1ccc(F)cc1` (configuration not stated), the GI50 in the assay with 786-0 renal was 0.448 µM; with EKVX NSCLC it was 0.377 µM; with HCT-15 colon it was 0.182 µM; with LOX IMVI melanoma, 0.112 µM; in the assay with SF-295 CNS, 0.349 µM; in the assay with SF-539 CNS, 0.389 µM. For the same compound, the GI50 was 0.508 µM in the assay on SNB-75 CNS, 0.51 µM in the assay with U251 CNS and 0.621 µM with UACC-257 melanoma. Also, the TGI with 786-0 renal was found to be 2.68 µM; in the assay on EKVX NSCLC, 2.95 µM; in the assay with HCT-15 colon, 2.08 µM; with LOX IMVI melanoma, 0.422 µM; in the assay with SF-295 CNS it was 2.92 µM; with SF-539 CNS, 1.88 µM. For the same compound, the TGI was 2.17 µM in the assay with SNB-75 CNS, 3.57 µM in the assay on U251 CNS and 2.98 µM in the assay with UACC-257 melanoma.

Take `Nn1c(N=Nc2c(O)[nH]c3ccccc23)n[nH]c1=S`: the TGI in the assay on 786-0 renal, with EKVX NSCLC, in the assay with HCT-15 colon, in the assay with K-562 leukemia, in the assay with LOX IMVI melanoma and in the assay on SF-295 CNS was over 100 µM each time. In addition, the TGI with SF-539 CNS, with U251 CNS and with UACC-257 melanoma was over 100 µM in each case.

Consider `CC(=O)/C=C/C1=C(c2ccsc2)c2ccccc2CC1`, for which the GI50 in the assay on 786-0 renal is 34.1 µM; in the assay on EKVX NSCLC, 35.9 µM; with HCT-15 colon, 18.6 µM; with K-562 leukemia, 21.3 µM; with LOX IMVI melanoma, 17.9 µM; in the assay on SF-295 CNS, 19.3 µM. Also, the GI50 in the assay on SF-539 CNS was 25.1 µM; in the assay on SNB-75 CNS, over 100 µM; with U251 CNS, 22.1 µM. Besides, the TGI is over 100 µM in the assay with 786-0 renal; over 100 µM in the assay with EKVX NSCLC; 35.3 µM in the assay with HCT-15 colon; 44 µM in the assay with K-562 leukemia; 31.9 µM in the assay on LOX IMVI melanoma; 49.7 µM in the assay with SF-295 CNS. Further, the TGI in the assay on SF-539 CNS was 60.7 µM; in the assay with SNB-75 CNS it was over 100 µM; in the assay with U251 CNS, 48.8 µM.

Regarding `CCOc1ccc(NC(=O)CCC(=O)NN)cc1`, the TGI with 786-0 renal, in the assay on EKVX NSCLC, with HCT-15 colon, with K-562 leukemia, in the assay on LOX IMVI melanoma and with SF-295 CNS was over 100 µM throughout. Also, the TGI in the assay with SNB-75 CNS, with U251 CNS and in the assay with UACC-257 melanoma was over 100 µM throughout.

Turning to `OC(c1ccccc1)c1c(-c2ccccc2)oc(-c2ccccc2)c1C(O)c1ccccc1` (configuration not stated), the TGI worked out at 21 µM with 786-0 renal; 19.6 µM in the assay with EKVX NSCLC; 36.8 µM in the assay with HCT-15 colon; 13.9 µM in the assay on K-562 leukemia; 25.2 µM in the assay with LOX IMVI melanoma; 29.3 µM with SF-295 CNS. Further, the TGI amounted to 30.5 µM in the assay on SF-539 CNS and 27.6 µM in the assay with U251 CNS.

For the compound `COc1cccc(Nc2nccc(Nc3ccc4[nH]ncc4c3)n2)c1`, the GI50 in the assay on 786-0 renal is 1.46 µM; in the assay with EKVX NSCLC it was 1.64 µM; in the assay on HCT-15 colon, 1.21 µM; in the assay with K-562 leukemia, 1.3 µM; in the assay with LOX IMVI melanoma, 1.44 µM; with SF-295 CNS, 1.66 µM. Moreover, the GI50 in the assay with SNB-75 CNS was 1.39 µM; in the assay with U251 CNS, 1.58 µM; with UACC-257 melanoma, 2.04 µM. Moreover, the TGI in the assay with 786-0 renal came out at 2.91 µM; in the assay on EKVX NSCLC, 4.09 µM; with HCT-15 colon, 2.91 µM; with K-562 leukemia, 3.89 µM; in the assay on LOX IMVI melanoma, 3.19 µM; with SF-295 CNS, 3.17 µM. The TGI in the assay with SNB-75 CNS was 3.13 µM; in the assay with U251 CNS, 3.18 µM; in the assay with UACC-257 melanoma, 3.72 µM.

Take `CCNCCNc1cc(-c2cccc(C(F)(F)F)c2)c(C#N)c2nc3ccccc3n12`: the GI50 in the assay on 786-0 renal is 1.02 µM; in the assay with EKVX NSCLC, 1.75 µM; in the assay with HCT-15 colon, 0.708 µM; in the assay on LOX IMVI melanoma, 0.299 µM; in the assay on SF-295 CNS it was 1.79 µM; in the assay with SF-539 CNS it was 1.7 µM. Further, the GI50 is 1.5 µM in the assay with SNB-75 CNS, 1.67 µM in the assay on U251 CNS and 1.81 µM in the assay with UACC-257 melanoma. The TGI in the assay on 786-0 renal came to 2.33 µM; with EKVX NSCLC, 3.45 µM; in the assay on HCT-15 colon it was 2.12 µM; in the assay on LOX IMVI melanoma, 1.07 µM; in the assay with SF-295 CNS, 3.39 µM; in the assay on SF-539 CNS, 3.23 µM. For the same compound, the TGI came out at 2.92 µM in the assay on SNB-75 CNS, 3.08 µM with U251 CNS and 3.26 µM in the assay on UACC-257 melanoma.
